Here are results for four compounds from PubChem BioAssay (NCI).

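Five concentrations, 48 hours, 96-well plates. TGI: total growth inhibition.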 Bounds are passed on as bounds.

The subject of the first experiment is SK-MEL-5 melanoma. The experiment can be described thus: growth of human tumour cells (NCI), 48 h.
For `CC(=O)OC1(C#N)CC2OC1C1C2N=NN1C(=O)OC(C)(C)C` (stereo not given), the TGI is > 100 µM.

For the compound `O=C1CC(C[C@H](O)C2CCCCC2O)CC(=O)N1Cc1ccccc1` (stereo not given in full), the TGI was > 100 µM.

On to `O=c1[nH]cc(COCCO)c(=O)[nH]1`, for which the TGI was > 100 µM.

For the next experiment, the system named is IGROV1 ovarian. The experiment is described as follows: growth of human tumour cells (NCI), 48 h.
For `CC(=O)n1c2c(c(=O)n1-c1ccccc1)S(=O)CCC2` (stereo not given), the TGI is > 100 µM.

Take `CC(=O)OC1(C#N)CC2OC1C1C2N=NN1C(=O)OC(C)(C)C` (stereo not given): the TGI was > 100 µM.

On to `O=C1CC(C[C@H](O)C2CCCCC2O)CC(=O)N1Cc1ccccc1` (stereo not given in full), for which the TGI was > 100 µM.

As to `O=c1[nH]cc(COCCO)c(=O)[nH]1`, the TGI was > 100 µM.

A further experiment deals with HCC-2998 colon. The experiment can be described thus: growth of human tumour cells (NCI), 48 h.
`CC(=O)n1c2c(c(=O)n1-c1ccccc1)S(=O)CCC2` (stereo not given): the TGI was > 100 µM.

As for `CC(=O)OC1(C#N)CC2OC1C1C2N=NN1C(=O)OC(C)(C)C` (stereo not given), the TGI was > 100 µM.

With `O=C1CC(C[C@H](O)C2CCCCC2O)CC(=O)N1Cc1ccccc1` (stereo not given in full), the TGI was > 100 µM.

The subject of the next experiment is 786-0 renal. The experiment can be described thus: growth of human tumour cells (NCI), 48 h.
Turning to `CC(=O)n1c2c(c(=O)n1-c1ccccc1)S(=O)CCC2` (stereo not given), the TGI is > 78.6 µM.

Regarding `O=C1CC(C[C@H](O)C2CCCCC2O)CC(=O)N1Cc1ccccc1` (stereo not given in full), the TGI was > 100 µM.

Turning to `O=c1[nH]cc(COCCO)c(=O)[nH]1`, the TGI is > 100 µM.

For the next experiment, the system named is HCT-116 colon. The experiment is described as follows: growth of human tumour cells (NCI), 48 h.
For the compound `CC(=O)n1c2c(c(=O)n1-c1ccccc1)S(=O)CCC2` (stereo not given), the TGI was > 100 µM.

`CC(=O)OC1(C#N)CC2OC1C1C2N=NN1C(=O)OC(C)(C)C` (stereo not given) returned a TGI of 28.6 µM.

Consider `O=C1CC(C[C@H](O)C2CCCCC2O)CC(=O)N1Cc1ccccc1` (stereo not given in full), for which the TGI is > 100 µM.

Regarding `O=c1[nH]cc(COCCO)c(=O)[nH]1`, the TGI is > 100 µM.

Another experiment has as its system RXF-631 renal. The experiment is described as follows: growth of human tumour cells (NCI), 48 h.
Consider `CC(=O)n1c2c(c(=O)n1-c1ccccc1)S(=O)CCC2` (stereo not given), for which the TGI was > 100 µM.

With `CC(=O)OC1(C#N)CC2OC1C1C2N=NN1C(=O)OC(C)(C)C` (stereo not given), the TGI is > 100 µM.

As to `O=C1CC(C[C@H](O)C2CCCCC2O)CC(=O)N1Cc1ccccc1` (stereo not given in full), the TGI is > 100 µM.

For `O=c1[nH]cc(COCCO)c(=O)[nH]1`, the TGI was > 100 µM.

A further experiment deals with SK-OV-3 ovarian. The experiment can be described thus: growth of human tumour cells (NCI), 48 h.
On to `CC(=O)n1c2c(c(=O)n1-c1ccccc1)S(=O)CCC2` (stereo not given), for which the TGI was > 100 µM.

Consider `O=C1CC(C[C@H](O)C2CCCCC2O)CC(=O)N1Cc1ccccc1` (stereo not given in full), for which the TGI was > 100 µM.

Turning to `O=c1[nH]cc(COCCO)c(=O)[nH]1`, the TGI is > 100 µM.

A further experiment has as its system NCI-H23 lung. The experiment is described as follows: growth of human tumour cells (NCI), 48 h.
Consider `CC(=O)n1c2c(c(=O)n1-c1ccccc1)S(=O)CCC2` (stereo not given), for which the TGI is > 100 µM.

For `CC(=O)OC1(C#N)CC2OC1C1C2N=NN1C(=O)OC(C)(C)C` (stereo not given), the TGI is 77.7 µM.

As to `O=C1CC(C[C@H](O)C2CCCCC2O)CC(=O)N1Cc1ccccc1` (stereo not given in full), the TGI is > 100 µM.

On to `O=c1[nH]cc(COCCO)c(=O)[nH]1`, for which the TGI is > 100 µM.

The next experiment relates to HOP-92 NSCLC. The experiment can be described thus: growth of human tumour cells (NCI), 48 h.
The compound `CC(=O)OC1(C#N)CC2OC1C1C2N=NN1C(=O)OC(C)(C)C` (stereo not given) came in with a TGI of 75.3 µM.

Consider `O=c1[nH]cc(COCCO)c(=O)[nH]1`, for which the TGI is > 100 µM.

The subject of a further experiment is K-562 leukemia. The experiment can be described thus: growth of human tumour cells (NCI), 48 h.
As for `CC(=O)n1c2c(c(=O)n1-c1ccccc1)S(=O)CCC2` (stereo not given), the TGI was > 100 µM.

For the compound `CC(=O)OC1(C#N)CC2OC1C1C2N=NN1C(=O)OC(C)(C)C` (stereo not given), the TGI is > 100 µM.

On to `O=C1CC(C[C@H](O)C2CCCCC2O)CC(=O)N1Cc1ccccc1` (stereo not given in full), for which the TGI is > 100 µM.

As for `O=c1[nH]cc(COCCO)c(=O)[nH]1`, the TGI was > 100 µM.

A further experiment concerns CAKI-1 renal. The experiment is described as follows: growth of human tumour cells (NCI), 48 h.
Turning to `CC(=O)n1c2c(c(=O)n1-c1ccccc1)S(=O)CCC2` (stereo not given), the TGI was > 100 µM.

For the compound `CC(=O)OC1(C#N)CC2OC1C1C2N=NN1C(=O)OC(C)(C)C` (stereo not given), the TGI is > 100 µM.

Regarding `O=C1CC(C[C@H](O)C2CCCCC2O)CC(=O)N1Cc1ccccc1` (stereo not given in full), the TGI is > 100 µM.

For `O=c1[nH]cc(COCCO)c(=O)[nH]1`, the TGI is > 100 µM.

In the next experiment the test system is SR leukemia. The experiment can be described thus: growth of human tumour cells (NCI), 48 h.
Turning to `CC(=O)n1c2c(c(=O)n1-c1ccccc1)S(=O)CCC2` (stereo not given), the TGI was found to be 22.8 µM.

Take `CC(=O)OC1(C#N)CC2OC1C1C2N=NN1C(=O)OC(C)(C)C` (stereo not given): the TGI was > 100 µM.

Turning to `O=C1CC(C[C@H](O)C2CCCCC2O)CC(=O)N1Cc1ccccc1` (stereo not given in full), the TGI is > 100 µM.

The test system of the next experiment is U251 CNS. The experiment is described as follows: growth of human tumour cells (NCI), 48 h.
Consider `CC(=O)n1c2c(c(=O)n1-c1ccccc1)S(=O)CCC2` (stereo not given), for which the TGI was > 100 µM.

Take `O=C1CC(C[C@H](O)C2CCCCC2O)CC(=O)N1Cc1ccccc1` (stereo not given in full): the TGI was > 100 µM.

For `O=c1[nH]cc(COCCO)c(=O)[nH]1`, the TGI was > 100 µM.

Another experiment relates to HL-60(TB) leukemia. The experiment can be described thus: growth of human tumour cells (NCI), 48 h.
Take `CC(=O)n1c2c(c(=O)n1-c1ccccc1)S(=O)CCC2` (stereo not given): the TGI was > 70 µM.

As to `O=C1CC(C[C@H](O)C2CCCCC2O)CC(=O)N1Cc1ccccc1` (stereo not given in full), the TGI was > 100 µM.

In the case of `O=c1[nH]cc(COCCO)c(=O)[nH]1`, the TGI was > 100 µM.

The test system of another experiment is M19-MEL melanoma. The experiment can be described thus: growth of human tumour cells (NCI), 48 h.
For `CC(=O)n1c2c(c(=O)n1-c1ccccc1)S(=O)CCC2` (stereo not given), the TGI is > 100 µM.

In the case of `CC(=O)OC1(C#N)CC2OC1C1C2N=NN1C(=O)OC(C)(C)C` (stereo not given), the TGI is > 100 µM.

On to `O=C1CC(C[C@H](O)C2CCCCC2O)CC(=O)N1Cc1ccccc1` (stereo not given in full), for which the TGI was > 100 µM.

Regarding `O=c1[nH]cc(COCCO)c(=O)[nH]1`, the TGI was > 100 µM.

For another experiment, the system named is UO-31 renal. The experiment is described as follows: growth of human tumour cells (NCI), 48 h.
Take `CC(=O)n1c2c(c(=O)n1-c1ccccc1)S(=O)CCC2` (stereo not given): the TGI is > 100 µM.

Consider `CC(=O)OC1(C#N)CC2OC1C1C2N=NN1C(=O)OC(C)(C)C` (stereo not given), for which the TGI is > 100 µM.

Turning to `O=C1CC(C[C@H](O)C2CCCCC2O)CC(=O)N1Cc1ccccc1` (stereo not given in full), the TGI was > 100 µM.

For the compound `O=c1[nH]cc(COCCO)c(=O)[nH]1`, the TGI was > 100 µM.
